{"source": "patent US5498522A", "about": "“Methods for the use of spermidine/spermine N^1 -acetyltransferase as a prognostic indicator and/or a tumor response marker” (priority 1993, dated 1996)", "key": {"LOX melanoma cells": {"tested_on": "LOX melanoma cells", "test": "N^1 -acetylspermidine in LOX cell cultures", "type": "cell-based, human", "conditions": "10 μm BESPM, 48 hours", "procedure": "To illustrate this embodiment, LOX and MALME-3 cell cultures were treated for 48 hours with 10 μm BESPM. The cells from each culture were harvested and assayed for SSAT activity. Media samples were prepared by treating the samples with 50% trichloroacetic acid to give a final concentration of 10% and then centrifuged at 15,000×g for 10 minutes. The supernatant was then filtered through a 0.22-μm filter, extracted with several volumes of ether, lyophilized, and resuspended in 10% trichloroacetic acid. N^1 -acetylspermidine levels of cells and media samples were then measured by use of high-pressure liquid chromatography. […] Similarly, N^1 -acetylspermidine levels from MALME-3 control cells, media from control cell cultures, and treated MALME-3 cells contained minimal levels of N^1 -acetylspermidine."}, "[1]": {"tested_on": "SH-1 human melanoma cells", "test": "growth of SH-1 melanoma cells in-vitro (FIG. 5)", "type": "cell-based", "conditions": "SH-1, 10 μM BESPM, 48 hours", "procedure": "As mentioned previously, cells from malignant solid tumor respond to polyamine analog therapy heterotypically. SSAT induction and antitumor response may vary not only among the solid tumor tissue type, but also with the clonal line of tumor of a particular solid tissue type. However, a correlation between the level of induction of SSAT and the potency of antitumor response has been observed in tumors of a particular solid tissue type. For example, seven human melanoma cell lines were assayed in-vitro for their response, as determined by cell growth and level of SSAT induction, to 10 μM BESPM at 48 hours post-treatment. As summarized in FIG. 5, growth among the cell lines decreases as SSAT induction increases."}, "natural polyamine pools": {"tested_on": "natural polyamine pools", "conditions": "in-vitro; cited from earlier work"}, "[2]": {"tested_on": "NCI H157 human large cell lung carcinoma cell line", "conditions": "cited from earlier work"}, "[3]": {"test": "BENSPM (analog) pools in tumor and host tissue", "type": "in vivo, mouse", "set-up": "BENSPM pool (tissue content): unit not given here"}, "[4]": {"tested_on": "LOX human melanoma xenografts", "test": "antitumor response against LOX human melanoma xenografts in mice", "type": "in vivo", "procedure": "(§1) […] where 1 represents length; w--width; and h--height. Tumor sizes were monitored 2 times/week until the median volume (V=0.4(a^2 ×b) where a is the smaller of the two perpendicular tumor diameters). As an indication of drug toxicity, animal weights were also recorded at the time of tumor volume measurement. Statistical analyses were performed on mouse tumor size and weight parameters by using the Mann-Whitney test.\n(§2) Tumor growth suppression was measured by plotting the mean tumor volume versus the number of days post-inoculation with polyamine analog (growth curve analyses). Suppression is determined by comparison with the growth of untreated tumors (%T/C). More specifically,: %T/C is (treated tumor volume minus pretreatment volume) divided by (control tumor volume minus pretreatment volume)×100. Typically this is measured either when the control tumor volume reaches 1000 mm^3, or at the last day of treatment.\n(§3) Tumor regression is measured as a percentage representing the average percentage of decrease in tumor volume from the largest pretreatment volume value.\n(§4) Repression of regrowth is represented as regrowth delay, determined as the number of days following cessation of treatment when median group tumor volume exceeds 200 mm^3 (an arbitrary indication of regrowth which was determined statistically).\nFor example, SSAT activity and potency of antitumor response was examined for LOX and MALME-3 melanoma xenografts in mice. Mice developing palpable tumors of a similar size were divided into different treatment groups comprising 7 mice per treatment group, and 7 control mice per treatment group. The treated mice received 40 mg/kg of BENSPM administered every 8 hours for a 5 day period. Melanoma tumor cells comprising the human xenografts were removed from two mice of each group at 16 hours following the final BENSPM injection to evaluate the level of induction of SSAT activity. The antitumor response from polyamine analog therapy was assessed in the five remaining mice from each group by monitoring the tumor volume of the xenografts over days following treatment as compared to untreated xenografts.\nFor example, human melanoma cell lines including MALME-3, SH-1, PANUT-3 and LOX were evaluated for the level of SSAT induction and potency of antitumor response following BENSPM treatment (80 mg/kg 3×/day×6 days) using the methodology previously described in this embodiment. […] The baseline of SSAT activity in the control mice (2 examined of 7 mice) ranged from 50 to 90 pmol/min/mg. […] Note that following BENSPM treatment (as discussed above in the context of Tables 4 and 5), suppression of tumor growth of PANUT-3, unlike suppression of MALME-3 growth, lasted for only about 12 days. Further, the levels of SSAT in PANUT-3 at two weeks post-treatment, approached the levels in the control and correlated with the loss of antitumor activity."}, "[5]": {"tested_on": "HT29 colon adenocarcinoma xenografts", "test": "antitumor response against HT29 colon adenocarcinoma xenografts in mice", "type": "in vivo, human", "procedure": "as §1, §2, §3, §4\n(§5) Cells from malignant solid human tumor tissue types, other than melanoma, have also been evaluated for their responsiveness to polyamine analog treatment including clonal cell lines A121 (human ovarian adenocarcinoma),A549 (lung adenocarcinoma), and HT29 colon adenocarcinoma). These cell lines were evaluated for the level of SSAT induction and potency of antitumor response following BENSPM treatment (80 mg/kg 3×/day×6 days) in-vivo using the methodology previously described in this embodiment. Also, dose of BENSPM was compared (80 mg/kg versus 40 mg/kg). The baseline of SSAT activity in the control mice (2 of 7 mice) ranged from 40 to 90 pmol/min/mg. Tumor cells from the human xenografts A121, A549, and HT29 were removed from two mice of each treated group of seven mice containing the respective xenograft at 16 hours following the final BENSPM injection to evaluate the level of induction of SSAT activity. […] The response to the polyamine analog was heterotypic. […] As discussed previously, it is not known whether the heterotypic antitumor response may be due to either the individual properties of the clonal line or the particular solid tumor type."}, "[6]": {"tested_on": "A121 human ovarian adenocarcinoma xenografts", "test": "antitumor response against A121 human ovarian adenocarcinoma xenografts in mice", "type": "in vivo", "procedure": "as §1, §2, §3, §4, §5"}, "[7]": {"tested_on": "ornithine decarboxylase (ODC)", "test": "ODC activity in human melanoma xenografts in-vivo"}, "[8]": {"conditions": "HT29, BENSPM 80 mg/kg 3x/d × 6d"}, "[9]": {"conditions": "A121, BENSPM 80 mg/kg 3x/d × 6d"}}, "note": "Several values for one entry are separate records, joined by “and”; a condition that tells them apart may be missing. Equal entries are not always repeated. Entries after “also recorded” stand apart in the source; their conditions may differ.", "data": [{"smiles": "CCNCCCNCCCCNCCCNCC", "note": "[BESPM, N^1,N^12-bis(ethyl)spermine]", "values": [{"measurement": "N^1 -acetylspermidine Extracellular", "setting": "LOX melanoma cells", "value": "< 0.1", "unit": "nmol/culture"}, {"measurement": "N^1 -acetylspermidine Intracellular", "setting": "LOX melanoma cells", "value": "< 0.1", "unit": "nmol/culture"}, {"measurement": "growth inhibition (FIG. 5)", "setting": "[1]", "value": "least growth inhibition"}, {"measurement": "natural polyamine pools", "setting": "natural polyamine pools", "value": "deplete natural polyamine pools"}, {"measurement": "cytotoxic response and SSAT induction", "setting": "[2]", "value": "associated with a high induction of SSAT"}]}, {"smiles": "CCNCCCNCCCNCCCNCC", "note": "[BENSPM, N^1,N^11 -bis(ethyl)norspermine]", "values": [{"measurement": "BENSPM pool (tissue content)", "setting": "[3]; MALME-3 tumor, 40 mg/kg 3x/day 6 days, 16 hrs post-treatment", "value": "1020/1535"}, {"measurement": "BENSPM pool (tissue content)", "setting": "[3]; MALME-3 tumor, 40 mg/kg, 2 wks post-treatment", "value": "620/470"}, {"measurement": "BENSPM pool (tissue content)", "setting": "[3]; kidney, 40 mg/kg, 2 wks post-treatment", "value": "90/150"}, {"measurement": "BENSPM pool (tissue content)", "setting": "[3]; kidney, 40 mg/kg, 16 hrs post-treatment", "value": "860/1705"}, {"measurement": "BENSPM pool (tissue content)", "setting": "[3]; liver, 40 mg/kg, 2 wks post-treatment", "value": "40/40"}, {"measurement": "BENSPM pool (tissue content)", "setting": "[3]; liver, 40 mg/kg, 16 hrs post-treatment", "value": "1180/1470"}, {"measurement": "metabolite peak of BENSPM", "setting": "[3]; tumor, kidney and liver, 40 mg/kg, 16 hrs post-treatment", "value": "a peak which was similar in height to the SPM peak"}, {"measurement": "tumor regression, regrowth delay, lack of regrowth (FIG. 6)", "setting": "[4]; LOX xenograft, 40 mg/kg every 8 hours for 5 days", "value": "no significant tumor regression, regrowth delay, nor lack of regrowth"}, {"measurement": "% T/C at 1 g", "setting": "[4]; LOX, BENSPM at 80 mg/kg", "value": 40, "unit": "%"}, {"measurement": "Tumor Regression", "setting": "[4]; LOX, BENSPM at 80 mg/kg", "value": "None"}, {"measurement": "Regrowth Delay", "setting": "[4]; LOX, BENSPM at 80 mg/kg, dt 5 days", "value": "None"}, {"measurement": "No Regrowth", "setting": "[4]; LOX, BENSPM at 80 mg/kg, for duration of experiment", "value": "0/5"}, {"measurement": "% T/C at 1 g", "setting": "[5]; [8]", "value": 24, "unit": "%"}, {"measurement": "Tumor Regression", "setting": "[5]; [8]", "value": "no measurable tumor regression and None"}, {"measurement": "Regrowth Delay", "setting": "[5]; HT29, BENSPM 80 mg/kg 3x/d × 6d, dt 3.5 days", "value": "None"}, {"measurement": "No Regrowth", "setting": "[5]; HT29, BENSPM 80 mg/kg 3x/d × 6d, for duration of experiment", "value": "two of five mice examined showed no regrowth and 2/5"}, {"measurement": "growth rate", "setting": "[5]; HT29 xenograft, 80 mg/kg 3×/day×6 days", "value": "reduced growth rate"}, {"measurement": "% T/C at 1 g", "setting": "[6]; [9]", "value": "< 0", "unit": "%"}, {"measurement": "Tumor Regression", "setting": "[6]; [9]", "value": "showed tumor regression; also recorded: Present"}, {"measurement": "Regrowth Delay", "setting": "[6]; A121, BENSPM 80 mg/kg 3x/d × 6d, dt 5 days", "value": 3.2, "unit": "× dt"}, {"measurement": "No Regrowth", "setting": "[6]; A121, BENSPM 80 mg/kg 3x/d × 6d, for duration of experiment", "value": "2 of 5 and 2/5"}, {"measurement": "total growth suppression period", "setting": "[6]; A121 xenograft, 80 mg/kg 3×/day×6 days", "value": 16, "unit": "days"}, {"measurement": "ODC levels", "setting": "[7]; MALME-3 study", "value": "ODC and SAMDC levels were not suppressed"}, {"measurement": "ODC levels", "setting": "[7]; PANUT-3 study", "value": "ODC and SAMDC levels were not suppressed"}]}]}
